Laboratory results from patent publication US20100280061A1, “NOVEL ANALGESIC THAT BINDS FILAMIN A” (priority 2009, published 2010).

Legend:
[1] = target: T1, mu opiate receptor (MOR) (Rattus norvegicus, UniProt P33535); experiment: [35S]GTPγS binding assay using striatal membranes (MOR agonist activity); assay type: biochemical; design: MOR agonist activity, [35S]GTPγS binding to Gαo, 0.1 μM / MOR agonist activity, [35S]GTPγS binding to Gαo, 1 μM / MOR agonist activity, [35S]GTPγS binding to Gαo, 1 μM + BFNA: reference not given here; details: for MOR agonist activity, [35S]GTPγS binding to Gαo, 0.1 μM: 0.1 μM compound; for MOR agonist activity, [35S]GTPγS binding to Gαo, 0.1 μM / MOR agonist activity, [35S]GTPγS binding to Gαo, 1 μM: striatal membranes; for MOR agonist activity, [35S]GTPγS binding to Gαo, 1 μM + BFNA: 1 μM compound + 1 μM β-funaltrexamine; for MOR agonist activity, [35S]GTPγS binding to Gαo, 1 μM: 1 μM compound
T1 construct: from tissue; host or cells: striatal tissue (membrane preparation)
Experimental: To assess the mu opiate receptor (MOR) agonist activity of positive compounds from the FLNA screening, compounds were tested in a [^35S]GTPγS binding assay using striatal membranes. Our previous study has shown that in striatal membranes, activation of MOR leads to an increase in [^35S]GTPγS binding to Gαo (Wang et al., 2005 Neuroscience 135:247-261).
Striatal tissue was homogenized in 10 volumes of ice cold 25 mM HEPES buffer, pH 7.4, which contained 1 mM EGTA, 100 mM sucrose, 50 μg/ml leupeptin, 0.04 mM PMSF, 2 μg/ml soybean trypsin inhibitor and 0.2% 2-mercaptoethanol. The homogenates were centrifuged at 800×g for 5 minutes and the supernatants were centrifuged at 49,000×g for 20 minutes. The resulting pellets were suspended in 10 volume of reaction buffer, which contained 25 mM HEPES, pH 7.5, 100 mM NaCl, 50 μg/ml leupeptin, 2 μg/ml soybean trypsin inhibitor, 0.04 mM PMSF and 0.02% […].
The resultant striatal membrane preparation (200 μg) was admixed and maintained (incubated) at 30° C. for 5 minutes in reaction buffer as above that additionally contained 1 mM MgCl2 and 0.5 nM [^35S]GTPγS (0.1 μCi/assay, PerkinElmer Life and Analytical Sciences) in a total volume of 250 μl and continued for 5 minutes in the absence or presence of 0.1-10 μM of an assayed compound of interest. The reaction was terminated by dilution with 750 μl of ice-cold reaction buffer that contained 20 mM MgCl2 and 1 mM EGTA and immediate centrifugation at 16,000×g for 5 minutes.
The resulting pellet was solubilized by sonicating for 10 seconds in 0.5 ml of immunoprecipitation buffer containing 0.5% digitonin, 0.2% sodium cholate and 0.5% NP-40. Normal rabbit serum (1 μl) was added to 1 ml of lysate and incubated at 25° C. for 30 minutes. Nonspecific immune complexes were removed by incubation with 25 μl of protein A/G-conjugated agarose beads at 25° C. for 30 minutes followed by centrifugation at 5,000×g at 4° C. for 5 minutes. The supernatant was divided and separately incubated at 25° C. for 30 minutes with antibodies raised against Gαo proteins (1:1,000 dilutions).
The immunocomplexes so formed were collected by incubation at 25° C. for 30 minutes with 40 μl of agarose-conjugated protein A/G beads and centrifugation at 5,000×g at 4° C. for 5 minutes. The pellet was washed and suspended in buffer containing 50 mM Tris-HCl, pH 8.0, and 1% NP-40. The radioactivity in the suspension was determined by liquid scintillation spectrometry. […] DAMGO (H-Tyr-D-Ala-Gly-N-MePhe-Gly-OH; 1 or 10 μM) was used as a positive control.

[2] = target: Bn-VAKGL pentapeptide of filamin A (FLNA) (Homo sapiens, UniProt P21333); experiment: FITC-NLX-based FLNA screening assay (FLNA peptide binding assay); details: for Percent inhibition of FITC-NLX binding, 0.01 μM: 0.01 μM compound; for Percent inhibition of FITC-NLX binding, 0.01 μM / Percent inhibition of FITC-NLX binding, 0.1 μM / Percent inhibition of FITC-NLX binding, 1 μM: 10 nM FITC-NLX; for Percent inhibition of FITC-NLX binding, 0.1 μM: 0.1 μM compound; for Percent inhibition of FITC-NLX binding, 1 μM: 1 μM compound
Experimental: The final assay volume is 100 μl.
Compounds are tested in triplicate or quadruplicate.

T1 sequence (P33535 whole entry): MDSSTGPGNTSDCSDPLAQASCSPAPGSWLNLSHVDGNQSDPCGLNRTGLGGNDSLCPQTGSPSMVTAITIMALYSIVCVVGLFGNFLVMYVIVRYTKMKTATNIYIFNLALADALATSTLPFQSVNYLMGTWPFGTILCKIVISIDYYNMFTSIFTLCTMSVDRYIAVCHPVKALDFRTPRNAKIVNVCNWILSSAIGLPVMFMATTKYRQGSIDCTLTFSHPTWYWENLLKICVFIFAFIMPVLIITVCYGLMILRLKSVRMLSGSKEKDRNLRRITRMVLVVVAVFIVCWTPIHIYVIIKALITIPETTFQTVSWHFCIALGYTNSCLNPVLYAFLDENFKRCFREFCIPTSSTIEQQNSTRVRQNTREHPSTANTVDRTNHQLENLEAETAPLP

Row | Structure (SMILES) | MOR agonist activity, [35S]GTPγS binding to Gαo, 0.1 μM [1] | MOR agonist activity, [35S]GTPγS binding to Gαo, 1 μM + BFNA [1] | MOR agonist activity, [35S]GTPγS binding to Gαo, 1 μM [1] | inhibition at 0.01 µM ([2]; read-out: Percent inhibition of FITC-NLX binding, 0.01 μM) | inhibition at 0.1 µM ([2]; read-out: Percent inhibition of FITC-NLX binding, 0.1 μM) | inhibition at 1 µM ([2]; read-out: Percent inhibition of FITC-NLX binding, 1 μM) | Percent inhibition of FITC-NLX binding, 0.01 μM [2] | Percent inhibition of FITC-NLX binding, 0.1 μM [2] | Percent inhibition of FITC-NLX binding, 1 μM [2]
1 | COc1c2c(cc3c1C(CC(=O)c1ccc(F)c(F)c1)[N+](C)(C)CC3)OCO2 (stereo not drawn) [B0003] | 103.0% | 18.6% | 131.1% | 45.4% | 52.9% | 63.5% |  |  | 
2 | COc1ccc(OC)c(CCC(=O)CC2c3c(cc4c(c3OC)OCO4)CC[N+]2(C)C)c1 (stereo not drawn) [B0044] | 87.3% | 134.6% | 170.0% |  |  |  | 35.2% | 39.5% | 44.4%
3 | COc1c2c(cc3c1C(CC(=O)CCc1ccc(F)cc1)[N+](C)(C)CC3)OCO2 (stereo not drawn) [B0018] | 118.8% | 45.6% | 143.0% |  |  |  | 37.2% | 43.7% | 47.6%
4 | COc1c2c(cc3c1C(CC(=O)Cc1ccccc1C)[N+](C)(C)CC3)OCO2 (stereo not drawn) [B0031] | 210.8% | 28.8% | 272.0% |  |  |  | 36.2% | 44.2% | 50.5%
5 | COc1cc(C(=O)CC2c3c(cc4c(c3OC)OCO4)CC[N+]2(C)C)cc(OC)c1OC (stereo not drawn) [B0037] | 119.8% | 106.2% | 186.0% |  |  |  | 47.4% | 53.0% | 52.4%
6 | COc1ccc(C(=O)CC2c3c(cc4c(c3OC)OCO4)CC[N+]2(C)C)c(O)c1.[I-] (stereo not drawn) [B0033] | 149.3% | 41.9% | 188.9% |  |  |  | 42.1% | 46.8% | 49.4%
7 | COc1ccc(C(=O)CC2c3c(cc4c(c3OC)OCO4)CC[N+]2(C)C)c(F)c1.[I-] (stereo not drawn) [B0027] | 140.9% | 21.6% | 266.9% |  |  |  | 40.2% | 46.7% | 49.8%
8 | COc1c2c(cc3c1C(CC(O)CCc1ccccc1)N(C)CC3)OCO2 (stereo not drawn) [B0051] | 115.6% | 43.8% | 161.9% |  |  |  | 29.9% | 35.7% | 43.7%
9 | COc1ccc(CCC(O)CC2c3c(cc4c(c3OC)OCO4)CC[N+]2(C)C)cc1 (stereo not drawn) [B0049] | 181.6% | 133.2% | 364.0% |  |  |  | 32.2% | 40.1% | 47.1%
10 | COc1ccc(C(=O)CC2c3c(cc4c(c3OC)OCO4)CC[N+]2(C)C)cc1 (stereo not drawn) [B0024] | 155.8% | 20.2% | 285.9% |  |  |  | 34.8% | 43.4% | 47.7%
11 | COc1ccccc1CC(O)CC1c2c(cc3c(c2OC)OCO3)CCN1C (stereo not drawn) [B0030] | 107.2% | 90.1% | 276.1% |  |  |  | 47.0% | 50.5% | 57.6%
12 | CCOc1ccc(C(=O)CC2c3c(cc4c(c3OC)OCO4)CC[N+]2(C)C)cc1F (stereo not drawn) [B0020] | 51.6% | 24.9% | 181.6% |  |  |  | 38.1% | 45.5% | 50.6%
13 | COc1c2c(cc3c1C(CC(O)CCc1ccccc1)[N+](C)(C)CC3)OCO2 (stereo not drawn) [B0052] | 98.2% | 40.9% | 151.7% |  |  |  | 30.2% | 39.1% | 44.3%
14 | COc1ccccc1CC(O)CC1c2c(cc3c(c2OC)OCO3)CC[N+]1(C)C.[I-] (stereo not drawn) [B0032] | 221.1% | 15.6% | 297.7% |  |  |  | 45.1% | 51.3% | 48.9%
15 | COc1cccc(CCC(=O)CC2c3c(cc4c(c3OC)OCO4)CC[N+]2(C)C)c1 (stereo not drawn) [B0034] | 122.5% | 41.8% | 235.2% |  |  |  | 49.1% | 54.2% | 59.1%
16 | COc1c2c(cc3c1C(CC(=O)Cc1ccc(Br)cc1)[N+](C)(C)CC3)OCO2 (stereo not drawn) [B0011] | 158.6% | 78.0% | 212.6% |  |  |  | 40.9% | 50.3% | 55.8%
17 | COc1c2c(cc3c1C(CC(=O)CCc1ccccc1)N(C)CC3)OCO2 (stereo not drawn) [B0050] | 98.2% | 48.8% | 211.0% |  |  |  | 29.2% | 34.5% | 39.8%
18 | COc1c2c(cc3c1C(CC(=O)c1ccc(O)c(C)c1)[N+](C)(C)CC3)OCO2 (stereo not drawn) [B0002] | 165.7% | 101.4% | 219.0% |  |  |  | 40.2% | 46.4% | 55.0%
19 | COc1ccccc1C(=O)CC1c2c(cc3c(c2OC)OCO3)CC[N+]1(C)C (stereo not drawn) [B0025] | 159.6% | 137.7% | 234.6% |  |  |  | 41.7% | 49.4% | 56.6%
20 | COc1c2c(cc3c1C(CC(=O)c1ccncc1)[N+](C)(C)CC3)OCO2 (stereo not drawn) [B0005] | 89.2% | 45.1% | 110.4% |  |  |  | 31.8% | 34.8% | 41.7%
